For experiment [1], the system named is Subjects suffering from phonophobia due to a migraine. Put plainly: Treatment of phonophobia due to a migraine, placebo-controlled subject study. It counts as in vivo. The note with it: 200 or 400 milligrams of ibuprofen in tablet form vs placebo; at time of two hours or longer. The text has this: FIG. 2 depicts the percentage of subjects with reduced phonophobia over time over time after treatment with ibuprofen. Subjects suffering from phonophobia due to a migraine were either given a placebo or treated with 200 or 400 milligrams of ibuprofen in tablet form.

Experiment [2] concerns Subjects suffering from photophobia due to a migraine. Put plainly: Treatment of photophobia due to a migraine, placebo-controlled subject study. It counts as in vivo. As to conditions: 200 or 400 milligrams of ibuprofen vs placebo; approximately 650 subjects; at time of two hours or longer. The text has this: FIG. 1 depicts the percentage of subjects with reduced photophobia over time after treatment with ibuprofen. Subjects suffering from photophobia due to a migraine were either given a placebo or treated with 200 or 400 milligrams of ibuprofen. Approximately 650 subjects were in the study. Some subjects were given placebos, while others were given either 200 or 400 milligrams of ibuprofen.

Turning to `CC(C)Cc1ccc(C(C)C(=O)O)cc1` (centres unmarked) [ibuprofen], the “relief of phonophobia (percentage of subjects with reduced phonophobia over time, FIG. 2); text prints photophobia” value in experiment [1] was “effective in relieving photophobia”. Further, the “relief of photophobia (percentage of subjects with reduced photophobia over time, FIG. 1)” value in experiment [2] is “effective in relieving photophobia”.

For the origin of these results see patent US20030191188A1, “Method for treating migraine symptoms with ibuprofen and salts thereof” (priority 1999, published 2003).
